Source: US7728038B2, “Methods for chelation therapy” (priority 2004, dated 2010)
Marks after values point to notes of the source that are not given here.

Columns and labels:
horse spleen ferritin = molecular target: T1, horse spleen ferritin (Equus caballus, UniProt P02791+Q8MIP0); experiment: Removal of iron from ferritin by incubation with chelators; format: biochemical; settings: Tris buffer 25 mM, pH 7.5, 37° C., chelator 0.47 mM, DFO 0.19 mM, up to 72 h
T1 construct: incubation of horse spleen ferritin with chelators 1a and 1b; from tissue; host or cells: horse spleen
Description: These chelators reacted with iron (III) forming purple complexes (UV: λmax=456 nm (ε4.6×10^3) for 1a; λmax=459 nm (λ4.45×10^3) for 1b) which have the chelator iron stoichiometry of 3:1. […] The chelators can also react with Al and Zn forming white powder complexes, and with Cu forming a green colored complex. These complexes were very soluble in water. […] The removal of iron from ferritin was determined by incubation of horse spleen ferritin with chelators 1a and 1b in Tris buffer (25 mM, pH 7.5, 37° C.) at a concentration of 0.47 mM, using DFO (0.19 mM) as a reference chelator similar to that described by Kontoghiorghes. The concentrations of the iron complex were measured spectrophotometrically from λmax values. The kinetics of iron release were investigated for a of period up to 72 h.

ovariectomized (Ovx) rat [1] = experiment: EPR free iron (BC) and LLOFR (NC) of humeral bone, OVX rats treated with estradiol; format: in vivo; settings: 17b-estradiol 10 μg/kg IP three times a week, 60 days post-surgery
Description: EPR-osseous tissue sample preparation and measurement: Samples of human femoral cortical bone preserved in 70% alcohol were initially crushed into large pieces (<1 mm) using a mortar and pestle. The granules were defatted with 10 changes of acetone and dried at 60° C. The samples then were further crushed and sieved to obtain a 250-600 micrometer fraction. The EPR measurement of approximately 100 mg of sample were made at 24° C. with values for g-factors of 2.00503±0.00019 (NC) and 2.00541±0.00085 (BC) and with widths of 0.916±0.0465 mT (NC) and 2.5 mT (BC) following a modification of known protocols.^74-75 A Bruker 300E spectrometer at 9.7 GHz was used for date collection.
Humeral bones from four groups of 3 or 4 rats (Sprague-Dawley, Charley River) each were evaluated. The baseline group consisting of 3 normal rats were sacrificed at six months of age using Ketamine-Xylazine anesthesia. The other three groups (4 rats each) were sham ovariectomized (SHAM) (one group) or ovariectomized (OVX) (two groups) at the same age. Bilateral ovariectomy was performed using a dorsal approach under aseptic conditions with Ketamine-Xylazine anesthesia.^76 One group of OVX animals was treated by estradiol IP injection with 10 μg/kg body weight of 17b-estradiol in benzyl alcohol/corn oil solution (5:95, vol/vol). The injections were three times a week. […]

ovariectomized (Ovx) rat [2] = experiment: EPR free iron (BC) and LLOFR (NC) of humeral bone, OVX rats treated with GL22; format: in vivo; settings: GL22 30 μmol/kg orally three times a week, 60 days post-surgery
Description: (§1) In another experiment, four groups of 3 or 4 rats (Sprague-Dawley, Charley River) each were used. The baseline group consisted of 3 normal rats, which were sacrificed at six months of age. The humeral bones were collected for EPR free iron and LLOFR measurements and the whole body bone mineral density (BMD) was assessed by Dual x-ray absorptiometry (Hologic QDR1000 Plus) before necropsy. The other three groups were sham ovariectomized (one group) or ovariectomized (two groups) at the same age. The operation (a dorsal approach of bilateral ovariectomy) was under aseptic conditions with Ketamine-Xylazine anesthesia. One group of OVX animals was treated by chelation therapy with 30 μmol/kg body weight of GL22 in saline solution (pH 7.5). The GL22 was orally administered by intubation with a blunt-ended stainless steel needle three times a week. The other two groups received the saline solution without chelator by the same manner. All groups were sacrificed at 60 days post-surgery to collect humeral bones for EPR free iron and LLOFR measurements. Before the termination, whole body BMD was measured.

ovariectomized (Ovx) rat [3] = experiment: Micro-CT morphometry of lumbar vertebra cancellous bone in chelator-treated Ovx rats; format: in vivo
Description: (§2) Animal and treatment: Three-month-old female Sprague-Dawley rats (Charles River Laboratory) were obtained and housed with a 12 h light-dark cycle at constant room temperature (24° C.) and humidity. The rats were fed standard rat chow (#8640 Harland Teklad, Madison, Wis.) and water ad libitum. When aged 6 month, the rats were divided into four groups. One group was sacrificed as baseline controls at the beginning of the experiment. The remaining groups were sham operated (one group) or bilaterally ovariectomized (two groups) via a dorsal approach. Chelation treatment started from the second day after surgery and was given three times a week for 9 weeks. The chelator (1-N-Docosyltriethylenetetraminepentaacetic acid, GL22) was dissolved in saline (pH 7.5) and was administrated by oral gavage (100 μmole/kg), while control groups including the sham and Ovx operated animals received vehicle only in the same manner.
(§3) Tissue preparation and analyses: Humeral bone was fixed in 70% ethanol for measurement of tissue iron by EPR. Lumbar vertebrae were first fixed in 10% phosphate buffered formalin for 24 hours, then dehydrated in ascending concentrations of ethanol and embedded in methyl methacrylate. The blocks were trimmed for peripheral computed tomography (pQCT), micro-computed tomography (μ-CT) and later prepared for histomorphometric studies.
μ-CT measurement: Lumbar vertebra were scanned in all three dimensions with a high-resolution μ-CT (10 μm) (Scanco μCT-40, Scanco Medical, Bassersdorf, Switzerland). The complete third vertebral bodies were scanned with 600 slices, each containing 2048×2048 pixels. The trabecular and cortical part of the bodies were separated with semi-automatically drawn contours. The resulting grey-sclae images were segmented using a low-pass filter to remove noice and a fixed threshold to extract the mineralized bone phase. From the binary images, structural indices were assessed with three-dimensional techniques without model-assumptions of the appearance of trabecular bone and were calculated by measuring three-dimensional distances directly in the travecular network and taking the mean over all voxels. The region of interest was travecular bone in the lumbar vertebral body, excluding the prmary songiosa area, 0.5 mm from the growth plate.

ovariectomized (Ovx) rat [4] = experiment: pQCT densitometry of lumbar vertebra BMD in chelator-treated Ovx rats; format: in vivo
Description: as §2, §3
pQCT densitometry: The L3 vertebra bodies were examined by pQCT densitometry (Norland Stratec XCT 960A, Birkenfeld, Germany) to determine bone mineral density (BMD) for the part from the middle point to the caudal end, excluding the primary spongiosa. A scout scan of the vertebra was performed, and on the scout view, a reference line was manually placed such that the cross-sectional slice passed through at a distance of 1, 2, 3 and 4 mm from caudal end of lumbar vertebra body. The voxel size was 196 μm. Contour mode 2, Peel mode 20, Cortical mode 2 and threshold 570 for cortical bone was chosen for the analysis. The mean BMD for all of the measured slices was then calculated.

[5] = system: heavy metal overload animals; settings: in vivo; cited from earlier work
[6] = 241-Am retention in whole body and skeletal tissue of rats after GL22 treatment; format: in vivo; settings: GL22 50 μmol/rat/day in food for 90 days
Description: 12 Male Sprague-Dawley rats from Simonsen Laboratories (Gilroy, Calif.) at about 80 days of age were given an intravenous injection of 241-Am-citrate in a total volume of 0.2 mL. For chelator treatment, the GL22 was dissolved in saline and the pH was adjusted to 7.5 with NaOH. Fourteen days after administration of 241-Am-citrate, a chelator food ration was started at 50 μmol/rat/day for 90 days orally, while the same food ration without chelator was given to controls. 50 μmol of chelator was added to the daily food ration (25 g). The total body retention of 241-Am was measured using a whole body-counter and after necropsy the skeletal tissues were counted for 241-Am content. The experimental protocol was described in an earlier publication. […] The same results have also been found for 239-Pu. Moreover, the excretion of iron from iron overloaded male rats that were treated by chelator was tested. The same rats as above at the age of 180 days were given 10 mg of iron as iron-dextran (Sigma, St. Louis, Mo.) subcutaneously every 3 days for 6 weeks to induce iron overloading. Then, a low iron diet (Teklab diet #80396) was given to the rats for 2 weeks as the baseline iron excretion reached plateau levels, which was determined by GFAA measurement of iron in feces. The chelator treated rats were given 20 g of low iron diet with 30 μmol of GL22 and control rats were given just 20 g of low iron diet each day for 14 days. Feces were collected every day for determination of iron excretion. The samples of feces were placed in glazed porcelain crucibles, dried at 100° C. overnight and ashed in a muffle furnace at 550° C. for 18 h. The ashed feces were dissolved in 4 mL of 3 N HCl and quantitatively transferred to a volumetric flask. The crucibles were then rinsed twice with 5 ml of 0.36 N HCl. The concentration of iron was determined by GFAA spectrophotometry (Perkin Elmer). After 14 days of chelation treatment by oral administration there were significant increases in the amounts of iron found in the feces when compared with controls (Table 7).

iron overload rats = experiment: Iron excretion in feces of iron overload rats treated by GL22 (GFAA); format: in vivo, rat; settings: 30 μmol GL22 in low iron diet each day for 14 days
Description: 12 Male Sprague-Dawley rats from Simonsen Laboratories (Gilroy, Calif.) at about 80 days of age were given an intravenous injection of 241-Am-citrate in a total volume of 0.2 mL. For chelator treatment, the GL22 was dissolved in saline and the pH was adjusted to 7.5 with NaOH. Fourteen days after administration of 241-Am-citrate, a chelator food ration was started at 50 μmol/rat/day for 90 days orally, while the same food ration without chelator was given to controls. 50 μmol of chelator was added to the daily food ration (25 g). The total body retention of 241-Am was measured using a whole body-counter and after necropsy the skeletal tissues were counted for 241-Am content. The experimental protocol was described in an earlier publication. […] The same results have also been found for 239-Pu. Moreover, the excretion of iron from iron overloaded male rats that were treated by chelator was tested. […] Then, a low iron diet (Teklab diet #80396) was given to the rats for 2 weeks as the baseline iron excretion reached plateau levels, which was determined by GFAA measurement of iron in feces. […] The ashed feces were dissolved in 4 mL of 3 N HCl and quantitatively transferred to a volumetric flask. […] The concentration of iron was determined by GFAA spectrophotometry (Perkin Elmer). […]

ovariectomized (Ovx) rat [7] = experiment: Free iron contents in humeral cortical bone of Ovx rats by EPR after oral chelation treatment; format: in vivo; settings: chelator 100 μmole/kg oral gavage three times a week for 9 weeks, FIG. 1
Description: as §2, with “manner. […]” for “manner.”
Iron measurement: Total iron contents of femoral cortical bones of aged women were assessed using ICP-OES performed by Galbraith Laboratories, Inc. (Knoxville, Tenn.). […] Each sample of about 100 mg was mixed with acid solution, microwave digested and measured. […]

ovariectomized (Ovx) rat [8] = experiment: Whole body BMD by dual x-ray absorptiometry, OVX rats treated with GL22; format: in vivo
Description: as §1

[9] = n-octanol/Tri-HCl buffer system; cited from earlier work
[10] = chelator-treated Ovx rats, μ-CT
[11] = Ovx rats treated with chelator, lumbar vertebra, pQCT

T1 sequence (P02791 2-175 limits assumed): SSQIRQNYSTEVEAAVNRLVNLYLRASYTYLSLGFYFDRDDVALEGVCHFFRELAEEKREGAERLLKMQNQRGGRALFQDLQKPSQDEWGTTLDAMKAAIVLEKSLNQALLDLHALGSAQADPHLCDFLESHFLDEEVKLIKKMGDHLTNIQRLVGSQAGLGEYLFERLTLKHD
T1 sequence (Q8MIP0 whole entry): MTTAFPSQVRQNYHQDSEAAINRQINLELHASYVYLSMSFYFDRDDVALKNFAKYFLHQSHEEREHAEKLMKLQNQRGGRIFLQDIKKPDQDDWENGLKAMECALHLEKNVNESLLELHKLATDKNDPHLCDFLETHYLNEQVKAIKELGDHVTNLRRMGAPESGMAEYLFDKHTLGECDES

For `Cc1c(O)c(=O)ccn1COCCO` [1a], the “removing iron from ferritin, compared with DFO” value (horse spleen ferritin) was “more effective than DFO”.
In the case of `CCc1c(O)c(=O)ccn1COCCO` [1b], the “removing iron from ferritin, compared with DFO” value (horse spleen ferritin) is reported as “more effective than DFO”.
In the case of `C[C@]12CC[C@@H]3c4ccc(O)cc4CC[C@H]3[C@@H]1CC[C@@H]2O` [Estrogen, 17b-estradiol], the “BC (free iron) of EPR signal of humeral bone” value (ovariectomized (Ovx) rat [1]) is reported as 214.3 ± 11.1^b a.u./mg and the “NC (LLOFR) of EPR signal of humeral bone” value (ovariectomized (Ovx) rat [1]) is reported as 1357.5 ± 101.4^b a.u./mg.
With `CCCCCCCCCCCCCCCCCCCCCCN(CCN(CCN(CCN(CC(=O)O)CC(=O)O)CC(=O)O)CC(=O)O)CC(=O)O` [GL22, 1-N-Docosyltriethylenetetraminepentaacetic acid] the “BC (free iron) in bone” value (ovariectomized (Ovx) rat [2]) was 202.7 ± 32.9^b a.u./mg, the “NC (LLOFR) in bone” value (ovariectomized (Ovx) rat [2]) was 1083 ± 127^b a.u./mg and the “BV/TV compared with sham control” value (ovariectomized (Ovx) rat [3]; Ovx rats treated with chelator) was 85.2%. For the same compound, the “Tr. Sp. increase compared with sham control” value (ovariectomized (Ovx) rat [3]; Ovx rats treated with chelator) was 8%, the “bone volume to tissue volume (BV/TV), higher than untreated Ovx rats” value (ovariectomized (Ovx) rat [3]; [10]) was 9.1% and the “trabecular separation (Tr. Sp.), less than OVX controls” value (ovariectomized (Ovx) rat [3]; [10]) was 10.2%. The “Trabecula BMD of spine bone versus Ovx group” value (ovariectomized (Ovx) rat [4]; FIG. 2A, ANOVA p<0.01, 6 rats per group) was “significantly higher”, the “Total BMD of spine bone versus Ovx group” value (ovariectomized (Ovx) rat [4]; FIG. 2B, ANOVA p<0.05, 6 rats per group) was “significantly higher” and the “trabecular BMD compared with sham control” value (ovariectomized (Ovx) rat [4]; Ovx rats treated with chelator) was 91.8%. For the same compound, the “trabecular BMD of the spine, higher than Ovx rats” value (ovariectomized (Ovx) rat [4]; [11]) was 20%, the “trabecular BMD of the spine, less than sham control” value (ovariectomized (Ovx) rat [4]; [11]) was 8.2% and the “toxicity in treated heavy metal overload animals” value [5] was “without any indications of toxicity”. For the same compound, the “241-Am retention, Femur” value [6] was 4.06 ± 0.08%, the “241-Am retention, Humerus” value [6] was 3.97 ± 0.09% and the “241-Am retention, Vertebral body” value [6] was 4.05 ± 0.23%. The “241-Am retention, Whole body” value ([6]; started 14 days after 241-Am-citrate iv) was 50.8 ± 0.7%, the “Excreted Fe from feces” value (iron overload rats) was 1084.62 ± 88.54 and the “iron content in bone, percent of that of Ovx rats without chelation treatment” value (ovariectomized (Ovx) rat [7]) was 59.8%. The “iron content in bone, percent of that of sham controls” value (ovariectomized (Ovx) rat [7]) was 73.0%, the “whole body BMD” value (ovariectomized (Ovx) rat [8]; OVX rats, GL22 30 μmol/kg orally three times a week, 60 days post-surgery) was 0.188 ± 0.004^b g/cm2 and the “removal of Ca from bone” value (ovariectomized (Ovx) rat [8]; judged from BMD of chelator-treated OVX rats versus SHAM rats (Table 5)) was “not found to remove Ca from bone”.
For `Cc1c(O)c(=O)ccn1C` [L1, 1,2-dimethyl-3-hydroxyl-4-pyridinone], the “distribution coefficient (DC)” value [9] is listed as 0.24.
